From PMC5218480 (PLoS ONE, 2017)

Test system: MV-4-11 cells
Experiment: Gene expression microarray analysis (Affymetrix PrimeView) and GSEA
Type: cell-based, human
Design: RFU PODN (11730768_x_at) / Fold change /veh PODN (11730768_x_at) / RFU LINC00158 (11744669_a_at) / Fold change /veh LINC00158 (11744669_a_at) / RFU DUSP10 (11751237_a_at) / Fold change /veh DUSP10 (11751237_a_at) / RFU ID3 (11757404_x_at) / Fold change /veh ID3 (11757404_x_at) / RFU PLEKHG5 (11737974_s_at) / Fold change /veh PLEKHG5 (11737974_s_at) / RFU LRRC4B (11730491_at) / Fold change /veh LRRC4B (11730491_at) / RFU GIMAP4 (11747438_a_at) / Fold change /veh GIMAP4 (11747438_a_at) / RFU KRT8 (11758183_x_at) / Fold change /veh KRT8 (11758183_x_at) / RFU CNN1 (11734310_a_at) / Fold change /veh CNN1 (11734310_a_at) / RFU VPS37D (11726825_at) / Fold change /veh VPS37D (11726825_at) / RFU C10orf10 (11716522_x_at) / Fold change /veh C10orf10 (11716522_x_at) / RFU KIR2DL2 /// KIR2DL4 /// KIR2DL5A /// KIR2DL5B /// KIR2DS1 /// KIR2DS2 /// KIR2DS3 /// KIR2DS4 /// KIR3DL3 /// KIR3DL3 /// KIR3DS1 (11738374_at) / Fold change /veh KIR2DL2 /// KIR2DL4 /// KIR2DL5A /// KIR2DL5B /// KIR2DS1 /// KIR2DS2 /// KIR2DS3 /// KIR2DS4 /// KIR3DL3 /// KIR3DL3 /// KIR3DS1 (11738374_at) / RFU C1QL1 (11718748_at) / Fold change /veh C1QL1 (11718748_at) / RFU TMPRSS4 (11747572_a_at) / Fold change /veh TMPRSS4 (11747572_a_at) / RFU HAMP (11756126_x_at) / Fold change /veh HAMP (11756126_x_at) / RFU RNFT2 (11725882_a_at) / Fold change /veh RNFT2 (11725882_a_at) / RFU NR4A2 (11747474_a_at) / Fold change /veh NR4A2 (11747474_a_at) / RFU ABCC12 (11746883_a_at) / Fold change /veh ABCC12 (11746883_a_at) / RFU TMEM136 (11760407_x_at) / Fold change /veh TMEM136 (11760407_x_at) / RFU CLDN22 /// WWC2 (11732394_at) / Fold change /veh CLDN22 /// WWC2 (11732394_at) / RFU HLA-DPB1 (11760878_x_at) / Fold change /veh HLA-DPB1 (11760878_x_at) / RFU SPINT1 (11716480_a_at) / Fold change /veh SPINT1 (11716480_a_at) / RFU GAP43 (11754022_s_at) / Fold change /veh GAP43 (11754022_s_at) / RFU A4GNT (11735810_at) / Fold change /veh A4GNT (11735810_at) / RFU PRB3 (11715151_x_at) / Fold change /veh PRB3 (11715151_x_at) / RFU TUBB4B (11761932_at) / Fold change /veh TUBB4B (11761932_at) / RFU CAPN14 (11732068_a_at) / Fold change /veh CAPN14 (11732068_a_at) / RFU TMCC2 (11721928_a_at) / Fold change /veh TMCC2 (11721928_a_at) / RFU IRGQ (11745062_a_at) / Fold change /veh IRGQ (11745062_a_at) / RFU FAM174B (11720279_a_at) / Fold change /veh FAM174B (11720279_a_at) / RFU TMPRSS4 (11748680_a_at) / Fold change /veh TMPRSS4 (11748680_a_at) / RFU FAM212B (11763350_a_at) / Fold change /veh FAM212B (11763350_a_at) / RFU PLEKHG5 (11743358_a_at) / Fold change /veh PLEKHG5 (11743358_a_at) / RFU ZSCAN30 (11745921_a_at) / Fold change /veh ZSCAN30 (11745921_a_at) / RFU CMKLR1 (11741424_a_at) / Fold change /veh CMKLR1 (11741424_a_at) / RFU LOC101060620 /// MAPK8IP1 (11723275_at) / Fold change /veh LOC101060620 /// MAPK8IP1 (11723275_at) / RFU SPTSSB (11747773_x_at) / Fold change /veh SPTSSB (11747773_x_at) / RFU PRSS12 (11739890_at) / Fold change /veh PRSS12 (11739890_at) / RFU BIN1 (11741810_x_at) / Fold change /veh BIN1 (11741810_x_at) / RFU WNT11 (11732464_a_at) / Fold change /veh WNT11 (11732464_a_at) / RFU C10orf10 (11716521_a_at) / Fold change /veh C10orf10 (11716521_a_at) / RFU C5orf56 (11738089_at) / Fold change /veh C5orf56 (11738089_at) / RFU CYB561 (11721691_x_at) / Fold change /veh CYB561 (11721691_x_at) / RFU ANKRD19P (11752326_a_at) / Fold change /veh ANKRD19P (11752326_a_at) / RFU OR2T12 /// OR2T33 /// OR2T8 (11738714_s_at) / Fold change /veh OR2T12 /// OR2T33 /// OR2T8 (11738714_s_at) / RFU VCAN (11748164_a_at) / Fold change /veh VCAN (11748164_a_at) / RFU JSRP1 (11732532_at) / Fold change /veh JSRP1 (11732532_at) / RFU KRTAP10-11 (11738290_x_at) / Fold change /veh KRTAP10-11 (11738290_x_at) / RFU MYO3A (11730013_a_at) / Fold change /veh MYO3A (11730013_a_at) / RFU EBF3 (11725865_a_at) / Fold change /veh EBF3 (11725865_a_at) / RFU CAMK2N1 (11719241_x_at) / Fold change /veh CAMK2N1 (11719241_x_at) / RFU C5orf56 (11738088_a_at) / Fold change /veh C5orf56 (11738088_a_at) / RFU OLFML3 (11715873_a_at) / Fold change /veh OLFML3 (11715873_a_at) / RFU LOC100653217 /// NTM (11731650_a_at) / Fold change /veh LOC100653217 /// NTM (11731650_a_at) / RFU MAPK11 (11762145_a_at) / Fold change /veh MAPK11 (11762145_a_at) / RFU FIZ1 (11724087_x_at) / Fold change /veh FIZ1 (11724087_x_at) / RFU OASL (11726364_x_at) / Fold change /veh OASL (11726364_x_at) / RFU SOX15 (11748057_x_at) / Fold change /veh SOX15 (11748057_x_at) / RFU CD79A (11719716_a_at) / Fold change /veh CD79A (11719716_a_at) / RFU HIST1H1D (11736915_at) / Fold change /veh HIST1H1D (11736915_at) / RFU CASKIN2 (11723855_a_at) / Fold change /veh CASKIN2 (11723855_a_at) / RFU LOC730098 (11760151_x_at) / Fold change /veh LOC730098 (11760151_x_at) / RFU OR4N2 (11742367_at) / Fold change /veh OR4N2 (11742367_at) / RFU PRRT2 (11749266_a_at) / Fold change /veh PRRT2 (11749266_a_at) / RFU SNX32 (11753110_a_at) / Fold change /veh SNX32 (11753110_a_at) / RFU CDHR5 (11726645_a_at) / Fold change /veh CDHR5 (11726645_a_at) / RFU RCAN1 (11760418_a_at) / Fold change /veh RCAN1 (11760418_a_at) / RFU FAM167A (11723789_a_at) / Fold change /veh FAM167A (11723789_a_at) / RFU FAM26E (11764081_at) / Fold change /veh FAM26E (11764081_at) / RFU ISYNA1 (11749810_s_at) / Fold change /veh ISYNA1 (11749810_s_at) / RFU ACY1 (11761880_at) / Fold change /veh ACY1 (11761880_at) / RFU 11764098_at / Fold change /veh 11764098_at / RFU SAMD14 (11745864_x_at) / Fold change /veh SAMD14 (11745864_x_at) / RFU NPB (11741838_a_at) / Fold change /veh NPB (11741838_a_at) / RFU TMPRSS6 (11731388_a_at) / Fold change /veh TMPRSS6 (11731388_a_at) / RFU KRTAP10-2 (11738614_at) / Fold change /veh KRTAP10-2 (11738614_at) / RFU ARHGAP8 /// PRR5-ARHGAP8 (11727945_x_at) / Fold change /veh ARHGAP8 /// PRR5-ARHGAP8 (11727945_x_at) / RFU KRTAP5-7 /// NADSYN1 (11734609_at) / Fold change /veh KRTAP5-7 /// NADSYN1 (11734609_at) / RFU RASL12 (11751679_a_at) / Fold change /veh RASL12 (11751679_a_at) / RFU CDKN2B (11736163_a_at) / Fold change /veh CDKN2B (11736163_a_at) / RFU PRF1 (11729649_at) / Fold change /veh PRF1 (11729649_at) / RFU, ZNF638 /// ZNF638-IT1 / Fold change vs veh, ZNF638 /// ZNF638-IT1 / RFU, PANK3 / Fold change vs veh, PANK3 / RFU, SH3YL1 / Fold change vs veh, SH3YL1 / RFU, ZEB2 / Fold change vs veh, ZEB2 / RFU, NRIP1 / Fold change vs veh, NRIP1 / RFU, PTTG1IP / Fold change vs veh, PTTG1IP / RFU, CAPN2 / Fold change vs veh, CAPN2 / RFU, MED14 / Fold change vs veh, MED14 / RFU, SNORA58 / Fold change vs veh, SNORA58 / RFU, C1orf63 / Fold change vs veh, C1orf63 / RFU, LRRFIP1 / Fold change vs veh, LRRFIP1 / RFU, NDUFAF7 / Fold change vs veh, NDUFAF7 / RFU, SLC12A2 / Fold change vs veh, SLC12A2 / RFU, IBTK / Fold change vs veh, IBTK / RFU, ESF1 / Fold change vs veh, ESF1 / Fold change vs veh, TMEM50B / RFU, TAOK1 / Fold change vs veh, TAOK1 / RFU, ACBD3 / Fold change vs veh, ACBD3 / RFU, TMA16 / Fold change vs veh, TMA16 / RFU, RWDD3 / Fold change vs veh, RWDD3 / RFU, BCAT1 / Fold change vs veh, BCAT1 / RFU, EDEM3 / Fold change vs veh, EDEM3 / RFU, TMEM33 / Fold change vs veh, TMEM33 / RFU, WDR75 / Fold change vs veh, WDR75 / RFU, AHCTF1 / Fold change vs veh, AHCTF1 / RFU, TFRC / Fold change vs veh, TFRC / RFU, ZDHHC17 / Fold change vs veh, ZDHHC17 / RFU, NOM1 / Fold change vs veh, NOM1 / RFU, ARL8B / Fold change vs veh, ARL8B / RFU, ZBTB11 / Fold change vs veh, ZBTB11 / RFU, TAMM41 / Fold change vs veh, TAMM41 / RFU, KIAA1704 /// LOC100996395 / Fold change vs veh, KIAA1704 /// LOC100996395 / RFU, ING1 / Fold change vs veh, ING1 / RFU, TRMT61B / Fold change vs veh, TRMT61B / RFU, FUBP3 / Fold change vs veh, FUBP3 / RFU, TP53 / Fold change vs veh, TP53 / RFU, TNKS2 / Fold change vs veh, TNKS2 / RFU, ZFP14 / Fold change vs veh, ZFP14 / RFU, ACTR2 / Fold change vs veh, ACTR2 / RFU, PPP3R1 / Fold change vs veh, PPP3R1 / RFU, PIK3R1 / Fold change vs veh, PIK3R1 / RFU, HNRNPA1 / Fold change vs veh, HNRNPA1 / RFU, RNF170 / Fold change vs veh, RNF170 / RFU, ZNF28 / Fold change vs veh, ZNF28 / RFU, RNGTT / Fold change vs veh, RNGTT / RFU, OGT / Fold change vs veh, OGT / RFU, BRD1 / Fold change vs veh, BRD1 / RFU, MARS / Fold change vs veh, MARS / RFU, ZNF655 / Fold change vs veh, ZNF655 / RFU, FAHD1 / Fold change vs veh, FAHD1 / RFU, BDP1 / Fold change vs veh, BDP1 / RFU, LRRCC1 / Fold change vs veh, LRRCC1 / RFU, ARID1A / Fold change vs veh, ARID1A / RFU, ZNF146 / Fold change vs veh, ZNF146 / RFU, ZNF330 / Fold change vs veh, ZNF330 / RFU, GPN3 / Fold change vs veh, GPN3 / RFU, C9orf123 / Fold change vs veh, C9orf123 / RFU, N4BP2L2 / Fold change vs veh, N4BP2L2 / RFU, ARFIP1 / Fold change vs veh, ARFIP1 / RFU, FAM179B / Fold change vs veh, FAM179B / RFU, BCL10 / Fold change vs veh, BCL10 / RFU, UHRF1BP1L / Fold change vs veh, UHRF1BP1L / RFU, BET1 / Fold change vs veh, BET1 / RFU, CNOT2 / Fold change vs veh, CNOT2 / RFU, ZNF268 / Fold change vs veh, ZNF268 / Fold change vs veh, ZNF507 / RFU, DGCR2 / Fold change vs veh, DGCR2 / RFU, WDSUB1 / Fold change vs veh, WDSUB1 / Fold change vs veh, HSP90B1 /// MIR3652 / RFU, ADSS / Fold change vs veh, ADSS / RFU, GK / Fold change vs veh, GK / RFU, ZNF148 / Fold change vs veh, ZNF148 / RFU, TAF9 / Fold change vs veh, TAF9 / RFU, SLC1A5 / Fold change vs veh, SLC1A5 / RFU, SLMO2 / Fold change vs veh, SLMO2 / RFU, ABCC4 / Fold change vs veh, ABCC4 / RFU, LOC101060439 /// RAP1B / Fold change vs veh, LOC101060439 /// RAP1B / RFU, RFX7 / Fold change vs veh, RFX7 / RFU, GTPBP10 / Fold change vs veh, GTPBP10 / RFU, CNEP1R1 / Fold change vs veh, CNEP1R1 / RFU, BIVM-ERCC5 /// ERCC5 / Fold change vs veh, BIVM-ERCC5 /// ERCC5 / RFU, ILF3 / Fold change vs veh, ILF3 / RFU 11762660_at / Fold change /veh 11762660_at / RFU VCAN (11757783_s_at) / Fold change /veh VCAN (11757783_s_at) / RFU DDX43 (11728927_at) / Fold change /veh DDX43 (11728927_at) / RFU KRT8 (11758188_x_at) / Fold change /veh KRT8 (11758188_x_at) / RFU NKD1 (11759106_at) / Fold change /veh NKD1 (11759106_at) / RFU SRD5A1 (11742802_a_at) / Fold change /veh SRD5A1 (11742802_a_at) / RFU TPSAB1 /// TPSB2 (11721975_s_at) / Fold change /veh TPSAB1 /// TPSB2 (11721975_s_at) / RFU GSTM3 (11746129_a_at) / Fold change /veh GSTM3 (11746129_a_at) / RFU IL23R (11737362_x_at) / Fold change /veh IL23R (11737362_x_at) / RFU TMEM51 (11727254_a_at) / Fold change /veh TMEM51 (11727254_a_at) / RFU PIWIL2 (11732686_x_at) / Fold change /veh PIWIL2 (11732686_x_at) / RFU ORM1 (11744905_x_at) / Fold change /veh ORM1 (11744905_x_at) / RFU CCDC152 (11743942_at) / Fold change /veh CCDC152 (11743942_at) / RFU ECM1 (11717891_a_at) / Fold change /veh ECM1 (11717891_a_at) / RFU IL23R (11748794_a_at) / Fold change /veh IL23R (11748794_a_at) / RFU TNFAIP8L3 (11732012_x_at) / Fold change /veh TNFAIP8L3 (11732012_x_at) / RFU MBOAT4 (11741988_at) / Fold change /veh MBOAT4 (11741988_at) / RFU 11764193_at / Fold change /veh 11764193_at / RFU TMEM53 (11763286_at) / Fold change /veh TMEM53 (11763286_at) / RFU MAGEB2 (11727129_at) / Fold change /veh MAGEB2 (11727129_at) / RFU TMEM200A (11744735_a_at) / Fold change /veh TMEM200A (11744735_a_at) / RFU CCDC152 (11751479_a_at) / Fold change /veh CCDC152 (11751479_a_at) / RFU FAM211A (11726209_a_at) / Fold change /veh FAM211A (11726209_a_at) / RFU RGS16 (11746705_a_at) / Fold change /veh RGS16 (11746705_a_at) / RFU VCAN (11755009_s_at) / Fold change /veh VCAN (11755009_s_at) / RFU RHOB (11743442_s_at) / Fold change /veh RHOB (11743442_s_at) / RFU RGS16 (11720943_a_at) / Fold change /veh RGS16 (11720943_a_at) / RFU RGS16 (11720944_at) / Fold change /veh RGS16 (11720944_at) / RFU, VPS4B / Fold change vs veh, VPS4B / RFU, CREB1 / Fold change vs veh, CREB1 / RFU, DNAJC13 / Fold change vs veh, DNAJC13 / RFU, GNAQ / Fold change vs veh, GNAQ / RFU, CDK5R1 / Fold change vs veh, CDK5R1 / RFU, ZRANB3 / Fold change vs veh, ZRANB3 / RFU, CUL4A / Fold change vs veh, CUL4A / RFU, CCNY / Fold change vs veh, CCNY / RFU, UFL1 / Fold change vs veh, UFL1 / RFU, COG3 / Fold change vs veh, COG3 / RFU, DIAPH2 / Fold change vs veh, DIAPH2 / RFU, SKA2 / Fold change vs veh, SKA2 / RFU, AFF3 / Fold change vs veh, AFF3 / RFU, LMF1 / Fold change vs veh, LMF1 / RFU, IPO11 / Fold change vs veh, IPO11 / RFU, DFFB / Fold change vs veh, DFFB / RFU, FOXP1 / Fold change vs veh, FOXP1 / RFU, CARD8 / Fold change vs veh, CARD8 / RFU, STRN3 / Fold change vs veh, STRN3 / RFU, ADK / Fold change vs veh, ADK / RFU, RASSF2 / Fold change vs veh, RASSF2 / RFU, WIPF1 / Fold change vs veh, WIPF1 / RFU, LARP1B / Fold change vs veh, LARP1B / RFU, RASA1 / Fold change vs veh, RASA1 / RFU, RB1 / Fold change vs veh, RB1 / RFU, PPFIA1 / Fold change vs veh, PPFIA1 / RFU, MAT2A / Fold change vs veh, MAT2A / RFU, CCT5 / Fold change vs veh, CCT5 / RFU, WDR92 / Fold change vs veh, WDR92 / RFU, CUX1 / Fold change vs veh, CUX1 / RFU, TTC7A / Fold change vs veh, TTC7A / RFU, TMEM135 / Fold change vs veh, TMEM135 / RFU, DEPTOR / Fold change vs veh, DEPTOR / RFU, CPM / Fold change vs veh, CPM / RFU, DNAJB6 / Fold change vs veh, DNAJB6 / RFU, CACNA2D3 / Fold change vs veh, CACNA2D3 / RFU, DTX4 / Fold change vs veh, DTX4 / RFU, TFCP2 / Fold change vs veh, TFCP2 / RFU, GMCL1 /// GMCL1P1 / Fold change vs veh, GMCL1 /// GMCL1P1 / RFU, AEBP2 / Fold change vs veh, AEBP2 / RFU, SNHG1 /// SNORD22 /// SNORD25 /// SNORD26 /// SNORD27 /// SNORD28 /// SNORD29 /// SNORD31 / Fold change vs veh, SNHG1 /// SNORD22 /// SNORD25 /// SNORD26 /// SNORD27 /// SNORD28 /// SNORD29 /// SNORD31 / Fold change (Aza/veh), C12orf56 (ProbeSet 11735607_a_at) / Fold change (ACY-1035/veh), C12orf56 (ProbeSet 11735607_a_at) / Fold change (Aza/veh), FGFR1OP (ProbeSet 11751329_s_at) / Fold change (ACY-1035/veh), FGFR1OP (ProbeSet 11751329_s_at) / Fold change (Aza/veh), VPS36 (ProbeSet 11739960_a_at) / Fold change (ACY-1035/veh), VPS36 (ProbeSet 11739960_a_at) / RFU SYPL1 (11715823_x_at) / Fold change /veh SYPL1 (11715823_x_at) / RFU IGFBP7 (11715501_s_at) / Fold change /veh IGFBP7 (11715501_s_at) / RFU REEP3 (11722064_at) / Fold change /veh REEP3 (11722064_at) / RFU IGLL1 (11728026_x_at) / Fold change /veh IGLL1 (11728026_x_at): dose or concentration left out as unconfirmed
Settings: MV-4-11 cells, 48 hours

`Nc1ncn([C@@H]2O[C@H](CO)[C@@H](O)[C@H]2O)c(=O)n1` [azacitidine] was tested, and the “Fold change /veh DUSP10 (11751237_a_at)” value was 1.16.
